This note sets out measurements from patent EP0894794A1, “Optical isomers of cloperastine” (AESCULAPIUS FARMACEUTICI S.r.l., priority 1997, dated 1999).

Marks after values point to notes of the source that are not given here.

The test system of series [1] is guinea pigs. The series is described as follows: citric acid aerosol coughing test. The note with it: for ED50 / inhibition at 1 mg/kg / inhibition at 5 mg/kg / inhibition at 10 mg/kg: Cavia porcellus, inhaled or nasal; for inhibition at 1 mg/kg / inhibition at 5 mg/kg / inhibition at 10 mg/kg: read-out: inhib. %; for coughs in 3 min mean + SD: fendizoate, guinea pigs, 8 animals.

Series [2] in a line: acute toxicity (LD50), rat. The following applies: rat, in vivo, ip, LD50 and 95% conf. lim., HCl; female rat; intraperit.
For series [3], the system named is rat. The series is described as follows: acute toxicity (LD50), rat. The note with it: HCl, female rat.
Series [4] deals with mouse. The series is described as follows: narcosis from hexobarbital (interaction with central depressants). The note with it: fendizoate; for Duration of sleep: mean ± SD after intraperitoneal 80 mg/kg sodium hexobarbital, mouse; for % variation: sleeping time vs. vehicle controls.
The nature of series [5]: acute toxicity (LD50), mouse. The following applies: mouse, in vivo, LD50 and 95% conf. lim., HCl, female mouse.
Series [6] concerns mouse. The series is described as follows: test of potentiation of pentylenetetrazole (interaction with central stimulants). The note with it: fendizoate, dose 150 mg/kg; for % variation: mean score vs. vehicle controls; for Mean score: scores 0 to 4 after intraperitoneal 50 mg/kg PTZ, mouse, 20 animals.
The subject of series [7] is mouse. The series is described as follows: acute toxicity (LD50), mouse. The note with it: HCl, female mouse.

The term ED50 denotes the midpoint of the dose-response relation. A word on the LD50: it is the dose expected to kill half of the subjects tested. Low readings indicate greater toxicity, high ones lower toxicity. Consider `Clc1ccc(C(OCCN2CCCCC2)c2ccccc2)cc1` (single isomer, unassigned) [L-CLO, L(-) cloperastine], for which, in series [1], the 50% effect level (ED50) was put at a dose of 4.23 mg/kg. Besides, the inhibition at 1 mg/kg in series [1] worked out at 32.7%. Also, the inhibition at 5 mg/kg in series [1] was determined as 45.4%. Moreover, in series [1], the inhibition at 10 mg/kg turned out to be 66.3%. For the same compound, the “coughs in 3 min mean + SD” value in series [1] (dose 1 mg/kg) came out at 44.5 ± 8.65; in series [1] (dose 5 mg/kg) it was 36.1 ± 5.24; in series [1] (dose 10 mg/kg), 22.3 ± 5.20. Further, the LD50 was found to be 195 mg/kg in series [2]; 171 mg/kg in series [5] (ip, intraperit.); 512 mg/kg in series [5] (po). Besides, the “LD50 and 95% conf. lim.” value in series [3] (oral) is listed as 1226 (981-1532) mg/kg. Moreover, the Duration of sleep in series [4] (dose 5 mg/kg) amounted to 38.90 ± 7.89 min; in series [4] (dose 15 mg/kg) it was 67.60 ± 16.75 min; in series [4] (dose 50 mg/kg), 43.10 ± 9.07 min; in series [4] (dose 150 mg/kg), 18.70 ± 2.87 min. For the same compound, the “% variation” value in series [4] (dose 5 mg/kg, 5 mg/kg) was “+16.5%”; in series [4] (dose 15 mg/kg, 15 mg/kg), “+102.3** %”; in series [4] (dose 50 mg/kg, 50 mg/kg), “+29.0(°) %”; in series [4] (dose 150 mg/kg, 150 mg/kg) it was -44.1** %; in series [6] (150 mg/kg), 36.4%. Further, the Mean score in series [6] is reported as 1.50.

In the case of `Clc1ccc(C(OCCN2CCCCC2)c2ccccc2)cc1` (single isomer, unassigned) [D-CLO, D(+) cloperastine], the “LD50 and 95% conf. lim.” value in series [3] (intraperit.) was 106 (82-138) mg/kg; in series [3] (oral), 602 (474-764) mg/kg; in series [7] (intraperit.), 96 (74.4-123.8) mg/kg; in series [7] (oral), 269 (219-331) mg/kg. Moreover, the Duration of sleep in series [4] (dose 5 mg/kg) stood at 71.70 ± 10.92 min; in series [4] (dose 15 mg/kg), 45.80 ± 8.67 min; in series [4] (dose 50 mg/kg), 22.40 ± 6.37 min; in series [4] (dose 150 mg/kg), 8.90 ± 3.01 min. Also, the “% variation” value is on record as “+114.7**(°°) %” in series [4] (dose 5 mg/kg, 5 mg/kg); “+37.1*(°) %” in series [4] (dose 15 mg/kg, 15 mg/kg); -32.9*(°°) % in series [4] (dose 50 mg/kg, 50 mg/kg); -73.4**(°°) % in series [4] (dose 150 mg/kg, 150 mg/kg); 186.4% in series [6] (150 mg/kg). For the same compound, the Mean score in series [6] is given as 3.15**(°°).

For the compound `Clc1ccc(C(OCCN2CCCCC2)c2ccccc2)cc1` (racemic) [DL-CLO, DL-cloperastine], it took a dose of 7.22 mg/kg to reach the 50% effect level in series [1] (ED50). In series [1], the inhibition at 1 mg/kg amounted to 13.5%. Further, the inhibition at 5 mg/kg in series [1] stood at 41.9%. The inhibition at 10 mg/kg in series [1] amounted to 57.2%. In addition, the “coughs in 3 min mean + SD” value in series [1] (dose 1 mg/kg) turned out to be 57.7 ± 8.21; in series [1] (dose 5 mg/kg), 38.4 ± 5.33; in series [1] (dose 10 mg/kg), 28.3 ± 4.50. Further, the Duration of sleep came out at 53.80 ± 9.05 min in series [4] (dose 5 mg/kg), 45.50 ± 6.39 min in series [4] (dose 15 mg/kg), 25.80 ± 7.30 min in series [4] (dose 50 mg/kg) and 10.40 ± 4.18 min in series [4] (dose 150 mg/kg). For the same compound, the “% variation” value in series [4] (dose 5 mg/kg) is listed as “+61.1**(°°) %”; in series [4] (dose 15 mg/kg), “+36.2**(°) %”; in series [4] (dose 50 mg/kg), -22.8(°°) %; in series [4] (dose 150 mg/kg) it was -68.9** %; in series [6] it was 122.7%. Moreover, the Mean score in series [6] is on record as 2.45**(°°).
